From US20240000789A1, “THERAPEUTIC COMBINATIONS COMPRISING A CRAF INHIBITOR” (NOVARTIS AG, priority 2020, published 2024)
Like-named read-outs stand apart in the source and are kept apart here.

Assays:
HMEX20864 (NRAS^Q61R) = conditions: HMEX 20864, p.o. mg/kg (days post treatment): Compound A 50 bid (11); for % change in tumor volume Mean +/SEM: best response
Method: (§1) MEPC 4 stocks was diluted 5×(1:4 with DI Water) prior to dosing. Compound A was formulated at 2.5 mg/mL and 5 mg/mL.
(§2) Final pH is adjusted to 4-4.5. […] Tumor volume was determined as in Example 2.
(§3) The efficacy was carried out with 2-3 mice/group beyond this point.
(§4) Data analysis was carried out as described in Example 2.
(§5) Compound A was formulated at 5 mg/mL.
(§6) Tumor volume was determined as in Example 2.

HMEX2921 (NRAS^Q61K) = conditions: HMEX 2921, p.o. mg/kg (days post treatment): Compound A 50 bid (12); for % change in tumor volume Mean +/SEM: best response
Method: as §1, §2, §3, §4, §5, §6

HMEX20667 (NRAS^Q61R) = conditions: HMEX 20677, p.o. mg/kg (days post treatment): Compound A 50 bid (11); for % change in tumor volume Mean +/SEM: best response
Method: as §1, §2, §3, §4, §5, §6

HMEX20585 (NRAS^Q61R) = conditions: HMEX 20585, p.o. mg/kg (days post treatment): Compound A 50 bid (12); for % change in tumor volume Mean +/SEM: best response
Method: as §1, §2, §3, §4, §5, §6

[1] = Compound B 75 qd (11), combination 50 bid+15 qd (42)
[2] = ribociclib 75 qd (11), combination 50 bid+75 qd (49)
[3] = trametinib 0.3 qd (11), combination 50 bid+0.0375 qd (28)
[4] = Compound B 75 qd (12), combination 50 bid+15 qd (12)
[5] = ribociclib 75 qd (12), combination 50 bid+75 qd (12)
[6] = trametinib 0.3 qd (12), combination 50 bid+0.075 qd (12)
[7] = Compound B 75 qd (11), combination 25 bid+75 qd (11)
[8] = ribociclib 75 qd (11), combination 50 bid+75 qd (14)
[9] = trametinib 0.3 qd (11), combination 50 bid+0.075 qd (31)
[10] = Compound B 75 qd (12), combination 25 bid+75 qd (12)

Cc1ccc(NC(=O)c2ccnc(C(F)(F)F)c2)cc1-c1cc(OCCO)nc(N2CCOCC2)c1 [Compound A, N-(3-(2-(2-hydroxyethoxy)-6-morpholinopyridin-4-yl)-4-methylphenyl)-2-(trifluoromethyl)isonicotinamide]
% change in body weight Mean +/SEM (HMEX20864 (NRAS^Q61R); [1]): −0.42 ± 2.28% | % change in body weight Mean +/SEM (HMEX20864 (NRAS^Q61R); [2]): −0.42 ± 2.28% | % change in body weight Mean +/SEM (HMEX20864 (NRAS^Q61R); [3]): −0.42 ± 2.28% | % change in tumor volume Mean +/SEM (HMEX20864 (NRAS^Q61R); [1]): 96.72% | % change in tumor volume Mean +/SEM (HMEX20864 (NRAS^Q61R); [2]): 96.72 ± 27.35% | % change in tumor volume Mean +/SEM (HMEX20864 (NRAS^Q61R); [3]): 96.72% | % change in body weight Mean +/SEM (HMEX2921 (NRAS^Q61K); [4]): −6.79 ± 1.48% | % change in body weight Mean +/SEM (HMEX2921 (NRAS^Q61K); [5]): −6.79 ± 1.48% | % change in body weight Mean +/SEM (HMEX2921 (NRAS^Q61K); [6]): −6.79 ± 1.48% | % change in tumor volume Mean +/SEM (HMEX2921 (NRAS^Q61K); [4]): 148.85% | % change in tumor volume Mean +/SEM (HMEX2921 (NRAS^Q61K); [5]): 148.85 ± 16.77% | % change in tumor volume Mean +/SEM (HMEX2921 (NRAS^Q61K); [6]): 148.85% | % change in body weight Mean +/SEM (HMEX20667 (NRAS^Q61R); [7]): 2.04 ± 1.48% | % change in body weight Mean +/SEM (HMEX20667 (NRAS^Q61R); [8]): 2.04 ± 1.48% | % change in body weight Mean +/SEM (HMEX20667 (NRAS^Q61R); [9]): 2.04 ± 1.48% | % change in tumor volume Mean +/SEM (HMEX20667 (NRAS^Q61R); [7]): 118.78% | % change in tumor volume Mean +/SEM (HMEX20667 (NRAS^Q61R); [8]): 118.78 ± 23.65% | % change in tumor volume Mean +/SEM (HMEX20667 (NRAS^Q61R); [9]): 118.78% | % change in body weight Mean +/SEM (HMEX20585 (NRAS^Q61R); [10]): 2.30 ± 1.26% | % change in body weight Mean +/SEM (HMEX20585 (NRAS^Q61R); [5]): 2.30 ± 1.26% | % change in body weight Mean +/SEM (HMEX20585 (NRAS^Q61R); [6]): 2.30 ± 1.26% | % change in tumor volume Mean +/SEM (HMEX20585 (NRAS^Q61R); [10]): 60.20% | % change in tumor volume Mean +/SEM (HMEX20585 (NRAS^Q61R); [5]): 60.20 ± 34.18% | % change in tumor volume Mean +/SEM (HMEX20585 (NRAS^Q61R); [6]): 60.20%
